Measurements reported in ChEMBL document CHEMBL2401715, “Synthesis, antitumor and antibacterial activities of some novel tetrahydrobenzo[4,5]thieno[2,3-d]pyrimidine derivatives” (Eur J Med Chem, 2013).

Key:
Bacillus subtilis = assay: Antibacterial activity against Bacillus subtilis ATCC 6051 assessed as growth inhibition after 24 to 48 hrs by kirby-bauer disc diffusion method; format: functional; note: test concentration or dose not given here
Pseudomonas aeruginosa = assay: Antibacterial activity against Pseudomonas aeruginosa ATCC 10145 assessed as growth inhibition after 24 to 48 hrs by kirby-bauer disc diffusion method; format: functional; note: test concentration or dose not given here
HepG2 = assay: Cytotoxicity against human HepG2 cells assessed as cell survival after 48 hrs by SRB assay; format: functional, cell-based; details: HepG2, 48 h
MCF7 = assay: Cytotoxicity against human MCF7 cells assessed as cell survival after 48 hrs by SRB assay; format: functional, cell-based; details: MCF7, 48 h
Staphylococcus aureus = assay: Antibacterial activity against Staphylococcus aureus ATCC 12600 assessed as growth inhibition after 24 to 48 hrs by kirby-bauer disc diffusion method; format: functional; note: test concentration or dose not given here
Escherichia coli = assay: Antibacterial activity against Escherichia coli ATCC 11775 assessed as growth inhibition after 24 to 48 hrs by kirby-bauer disc diffusion method; format: functional, DSM 30083 = JCM 1649; note: test concentration or dose not given here

**Q.** What does the source list for COc1cc(-c2nc3sc4c(c3c(=O)n2-c2nc3cc(C)ccc3s2)CCCC4)cc(OC)c1OC?
**A.** diameter of the inhibition zone (DIZ) (Bacillus subtilis): 11 mm; diameter of the inhibition zone (DIZ) (Pseudomonas aeruginosa): 12 mm; IC50 (HepG2): > 192 µM; IC50 (MCF7): 65.6 µM; diameter of the inhibition zone (DIZ) (Staphylococcus aureus): 14 mm; diameter of the inhibition zone (DIZ) (Escherichia coli): 12 mm

**Q.** COc1cc(-c2nc3sc4c(c3c(=O)n2C(Cc2ccccc2)C(=O)O)CCCC4)cc(OC)c1OC (stereo not drawn) was tested. Which “diameter of the inhibition zone (DIZ)” value (Bacillus subtilis) did it give?
**A.** 12 mm

**Q.** And the “diameter of the inhibition zone (DIZ)” value (Pseudomonas aeruginosa)?
**A.** 13 mm

**Q.** What about the IC50 (HepG2) of the same compound?
**A.** 19.4 µM

**Q.** What about the IC50 (MCF7) of the same compound?
**A.** 50.1 µM

**Q.** And the “diameter of the inhibition zone (DIZ)” value (Staphylococcus aureus)?
**A.** 10 mm

**Q.** What about the “diameter of the inhibition zone (DIZ)” value (Escherichia coli) of the same compound?
**A.** 13 mm

**Q.** COc1cc(-c2nc3sc4c(c3c(=O)n2C(Cc2cc3ccccc3[nH]2)C(=O)O)CCCC4)cc(OC)c1OC (stereo not drawn) was tested. Which “diameter of the inhibition zone (DIZ)” value (Bacillus subtilis) did it give?
**A.** 0 mm

**Q.** And the “diameter of the inhibition zone (DIZ)” value (Pseudomonas aeruginosa)?
**A.** 0 mm

**Q.** And the IC50 (HepG2)?
**A.** 30.9 µM

**Q.** What about the IC50 (MCF7) of the same compound?
**A.** > 179 µM

**Q.** And the “diameter of the inhibition zone (DIZ)” value (Staphylococcus aureus)?
**A.** 0 mm

**Q.** And the “diameter of the inhibition zone (DIZ)” value (Escherichia coli)?
**A.** 0 mm

**Q.** COc1cc(-c2nc3sc4c(c3c(=O)n2C2CONC2=O)CCCC4)cc(OC)c1OC (stereo not drawn) was tested. Which “diameter of the inhibition zone (DIZ)” value (Bacillus subtilis) did it give?
**A.** 15 mm

**Q.** What about the “diameter of the inhibition zone (DIZ)” value (Pseudomonas aeruginosa) of the same compound?
**A.** 14 mm

**Q.** What about the IC50 (HepG2) of the same compound?
**A.** 24.9 µM

**Q.** What about the IC50 (MCF7) of the same compound?
**A.** 54.9 µM

**Q.** And the “diameter of the inhibition zone (DIZ)” value (Staphylococcus aureus)?
**A.** 15 mm

**Q.** And the “diameter of the inhibition zone (DIZ)” value (Escherichia coli)?
**A.** 17 mm

**Q.** With COc1cc(-c2nc3sc4c(c3c(=O)n2-c2cc(=O)[nH]c(=O)[nH]2)CCCC4)cc(OC)c1OC as the compound, how does the “diameter of the inhibition zone (DIZ)” value (Bacillus subtilis) read?
**A.** 11 mm

**Q.** What about the “diameter of the inhibition zone (DIZ)” value (Pseudomonas aeruginosa) of the same compound?
**A.** 14 mm

**Q.** And the IC50 (HepG2)?
**A.** 86.4 µM

**Q.** What about the IC50 (MCF7) of the same compound?
**A.** 83.3 µM

**Q.** What about the “diameter of the inhibition zone (DIZ)” value (Staphylococcus aureus) of the same compound?
**A.** 11 mm

**Q.** And the “diameter of the inhibition zone (DIZ)” value (Escherichia coli)?
**A.** 14 mm

**Q.** For COc1cc(-c2nc3sc4c(c3c(=O)n2-c2nc3ccccc3s2)CCCC4)cc(OC)c1OC, which “diameter of the inhibition zone (DIZ)” value (Bacillus subtilis) is on record?
**A.** 13 mm

**Q.** And the “diameter of the inhibition zone (DIZ)” value (Pseudomonas aeruginosa)?
**A.** 15 mm

**Q.** And the IC50 (HepG2)?
**A.** 5.14 µM

**Q.** What about the IC50 (MCF7) of the same compound?
**A.** 11.5 µM

**Q.** What about the “diameter of the inhibition zone (DIZ)” value (Staphylococcus aureus) of the same compound?
**A.** 14 mm

**Q.** What about the “diameter of the inhibition zone (DIZ)” value (Escherichia coli) of the same compound?
**A.** 15 mm

**Q.** Which “diameter of the inhibition zone (DIZ)” value (Bacillus subtilis) does the source give for COc1cc(-c2nc3sc4c(c3c(=O)n2-c2nc3cc([N+](=O)[O-])ccc3s2)CCCC4)cc(OC)c1OC here?
**A.** 14 mm

**Q.** What about the “diameter of the inhibition zone (DIZ)” value (Pseudomonas aeruginosa) of the same compound?
**A.** 14 mm

**Q.** And the IC50 (HepG2)?
**A.** 36.9 µM

**Q.** What about the IC50 (MCF7) of the same compound?
**A.** 21.6 µM

**Q.** And the “diameter of the inhibition zone (DIZ)” value (Staphylococcus aureus)?
**A.** 15 mm

**Q.** What about the “diameter of the inhibition zone (DIZ)” value (Escherichia coli) of the same compound?
**A.** 15 mm

**Q.** What does the source list for NC(=S)n1c(/C=C/c2ccccc2)nc2sc3c(c2c1=O)CCCC3?
**A.** diameter of the inhibition zone (DIZ) (Bacillus subtilis): 13 mm; diameter of the inhibition zone (DIZ) (Pseudomonas aeruginosa): 13 mm; IC50 (HepG2): 17.7 µM; IC50 (MCF7): 10.6 µM; diameter of the inhibition zone (DIZ) (Staphylococcus aureus): 14 mm; diameter of the inhibition zone (DIZ) (Escherichia coli): 13 mm

**Q.** For NC(=O)n1c(/C=C/c2ccccc2)nc2sc3c(c2c1=O)CCCC3, which “diameter of the inhibition zone (DIZ)” value (Bacillus subtilis) is on record?
**A.** 14 mm

**Q.** And the “diameter of the inhibition zone (DIZ)” value (Pseudomonas aeruginosa)?
**A.** 15 mm

**Q.** What about the IC50 (HepG2) of the same compound?
**A.** 18.5 µM

**Q.** What about the IC50 (MCF7) of the same compound?
**A.** 13.4 µM

**Q.** And the “diameter of the inhibition zone (DIZ)” value (Staphylococcus aureus)?
**A.** 16 mm

**Q.** And the “diameter of the inhibition zone (DIZ)” value (Escherichia coli)?
**A.** 14 mm

**Q.** How did the “diameter of the inhibition zone (DIZ)” value (Bacillus subtilis) turn out when O=C(NO)n1c(/C=C/c2ccccc2)nc2sc3c(c2c1=O)CCCC3 was run?
**A.** 12 mm

**Q.** What about the “diameter of the inhibition zone (DIZ)” value (Pseudomonas aeruginosa) of the same compound?
**A.** 14 mm

**Q.** And the IC50 (HepG2)?
**A.** 52 µM

**Q.** What about the IC50 (MCF7) of the same compound?
**A.** 23.9 µM

**Q.** And the “diameter of the inhibition zone (DIZ)” value (Staphylococcus aureus)?
**A.** 15 mm

**Q.** And the “diameter of the inhibition zone (DIZ)” value (Escherichia coli)?
**A.** 13 mm

**Q.** For O=C(O)c1ccc(-n2c(/C=C/c3ccccc3)nc3sc4c(c3c2=O)CCCC4)cc1, which “diameter of the inhibition zone (DIZ)” value (Bacillus subtilis) is on record?
**A.** 14 mm

**Q.** What about the “diameter of the inhibition zone (DIZ)” value (Pseudomonas aeruginosa) of the same compound?
**A.** 14 mm

**Q.** And the IC50 (HepG2)?
**A.** 36.9 µM

**Q.** And the IC50 (MCF7)?
**A.** 45.3 µM

**Q.** What about the “diameter of the inhibition zone (DIZ)” value (Staphylococcus aureus) of the same compound?
**A.** 19 mm

**Q.** And the “diameter of the inhibition zone (DIZ)” value (Escherichia coli)?
**A.** 16 mm

**Q.** Which results are given for NS(=O)(=O)c1ccc(-n2c(/C=C/c3ccccc3)nc3sc4c(c3c2=O)CCCC4)cc1?
**A.** diameter of the inhibition zone (DIZ) (Bacillus subtilis): 14 mm; diameter of the inhibition zone (DIZ) (Pseudomonas aeruginosa): 15 mm; IC50 (HepG2): 1.29 µM; IC50 (MCF7): 0.43 µM; diameter of the inhibition zone (DIZ) (Staphylococcus aureus): 14 mm; diameter of the inhibition zone (DIZ) (Escherichia coli): 15 mm

**Q.** How did the “diameter of the inhibition zone (DIZ)” value (Bacillus subtilis) turn out when O=C(O)C(Cc1ccccc1)n1c(/C=C/c2ccccc2)nc2sc3c(c2c1=O)CCCC3 (stereo not drawn) was run?
**A.** 13 mm

**Q.** What about the “diameter of the inhibition zone (DIZ)” value (Pseudomonas aeruginosa) of the same compound?
**A.** 14 mm

**Q.** And the IC50 (HepG2)?
**A.** 31.5 µM

**Q.** What about the IC50 (MCF7) of the same compound?
**A.** 45.3 µM

**Q.** And the “diameter of the inhibition zone (DIZ)” value (Staphylococcus aureus)?
**A.** 16 mm

**Q.** And the “diameter of the inhibition zone (DIZ)” value (Escherichia coli)?
**A.** 14 mm
